Laboratory results reported in a melting point compilation (Tetko et al.; mined from patent text by program, amines drawn as free bases though some values may be those of a salt).

SMILES	melting point
CC(C)(C)NSc1cnccn1	44 to 52 °C
Oc1ccccc1-c1ccccc1-c1cccc2[pH]c3ccccc3c12 (centres undefined)	152 to 155 °C
CCc1cc(C=Cc2ccccc2O)on1	175 to 176 °C
CCCCc1c(C(=O)O)sc2ccc([N+](=O)[O-])cc12	238 to 240 °C
CN1CCCC1=NC(=O)Nc1ccccc1	140 to 144 °C
CS(=O)(=O)Nn1c(=O)[nH]c2cc(C(F)(F)F)c(N3CCC3)cc2c1=O	266 to 283 °C
CCNC(=O)[C@@H]1CCCN1C(=O)[C@H](C)NC(=O)C12CC3CC(CC(C3)C1)C2	116 to 118 °C
COC(=O)[C@H]1NC(=O)[C@H]1NC(=O)Cc1csc(NC(=O)CCl)n1 (relative stereo)	120 to 122 °C
CCCc1cc(NCc2ccc3c(c2)OCO3)nc(SCC#N)n1	92 to 94 °C
CCc1nn2c(-c3cccc(OC)c3)ccnc2c1C#N	118 to 119 °C
CCOC(=O)c1c(C)nc2cc(OC)c(OC)cc2c1-c1ccc(OC)c(OC)c1	147 to 148 °C
N#CCCN1C(=O)C(O)(c2cccc(Cl)c2)c2ccccc21 (centres undefined)	149 to 150 °C
O=c1sc2cc(C(F)(F)F)cc([N+](=O)[O-])c2s1	110 to 111 °C
CC12CCC3C(CC(O)C4CC(=O)CCC43C)C1CCC2O (centres undefined)	195 to 205 °C
CCCSc1sc(C(N)=O)c2c1-c1nc(-c3ccccc3)sc1CC2	203 to 204 °C
CCC(C)(C)c1csc(C(C#N)=C(O)c2c(F)cccc2F)n1	195 to 196 °C
CCCCCCCCCCCCCCCCSC(=O)Nc1ccc(NC(=O)NS(=O)(=O)c2ccc(OC)cc2)cc1	197 °C
CN1CCC(c2c[nH]c3ccc(NS(=O)(=O)c4cccc5ccccc45)cc23)CC1	254 to 256 °C
CC(C)(C)OC(=O)N[C@@H]1C[C@H](C(=O)O)Nc2cc(Cl)cc(Cl)c21 (relative stereo)	186 to 188 °C
CC(=O)c1cccc(-c2ncccc2OC2SCC(O)C(O)C2O)c1 (centres undefined)	128 to 133 °C

SMILES	melting point
O=C(O)CCCCN1CCC(Cc2ccccc2)CC1	148 to 151 °C
COc1ccc(OC(=O)c2c(Cl)cccc2Cl)cc1OC1CCCC1	100 to 101 °C
CCCc1cc(Cl)nc(-c2cccc(Oc3ccccc3Cl)n2)n1	96.5 °C
O=C(O)c1ccc(F)c2c1C=CCO2	224 to 226 °C
Nc1ccccc1C(=O)N1Cc2ccccc2C(=O)N1	156 to 157 °C
COC(=O)n1c(=O)oc2c(Cl)c(Cl)c(Cl)cc21	163 to 164 °C
c1csc(-c2nc3cnccc3[nH]2)c1	265 to 268 °C
Cc1ccc(N2CN(C)CNC2=S)cc1	176 to 178 °C
COc1ccccc1OCC(O)CCN1CCN(c2ccccc2)CC1 (centres undefined)	101 to 102 °C
Cc1oc(C(C)(C)C)nc1CCl	41 to 44 °C
COc1ccc2c(c1)CCC1C2CCC2(C)C(O)C(N)CC12 (centres undefined)	159 to 161 °C
CN(C)c1nc(N(C)C)c2ncn(Cc3ccccc3F)c2n1	127 °C
COc1ccc(S(=O)(=O)Nc2ccccc2NC(=O)c2cccnc2C)cc1	148 to 149 °C
COc1ccc2nc(Cl)cc(CCNC(C)=O)c2c1	162 to 164 °C
COc1cc(C=C(C#N)C(=O)Nc2cccc(Cl)c2)cc(F)c1O	235 °C
CC(NC(=O)Cc1cc(F)cc(F)c1)C(=O)NC1C(=O)N(C)C(c2ccccc2)c2ccccc21 (centres undefined)	115 °C
Nc1ncc(Br)cc1O	195 to 197 °C
O=C(O)CN(CC(=O)O)CC(c1ccc([N+](=O)[O-])cc1)N(CC(=O)O)CC(=O)O (centres undefined)	171 to 174 °C
COc1ccc(C(C)=O)c(OCCCC(=O)O)c1	127 to 129 °C
CC(=O)Nc1cc(F)ccc1C(=O)NCCN1CCC2(CC1)C(=O)NCN2c1ccc(F)cc1	195 °C

Results, then the compound that gave them:

melting point	SMILES
209 to 210 °C	CC1(C)Oc2ccc(C#N)cc2C(n2nc(-c3c(-c4ccccc4)nn4ccccc34)ccc2=O)C1O (centres undefined)
133 to 136 °C	CCc1cc(C(=O)c2ccccc2Cl)c(-n2c(C)nnc2CNC(=O)c2cccc(C(=O)O)c2)s1
194 °C	CCOC(=O)CCc1ccc(NC(=O)c2csc(NC(=O)NCc3ccccc3)n2)cc1
94 to 95 °C	CCCCCS(=O)(=O)NC(=O)CCc1ccc(OC(C)C)cc1Oc1ncc(C(F)(F)F)cc1Cl
184 to 188 °C	Cc1ccc(-c2cc(-c3ccc(O)c(F)c3)nc3ccc(O)cc23)cc1
127 to 129 °C	CCN1C(=O)C(C)(C)C(=O)N(C)c2cc(CN(CCn3ccc4oc(C)cc4c3=O)Cc3cccnc3COC)ccc21
195 to 197 °C	COCCOc1ccc(/C=C/C(=O)NS(=O)(=O)c2cccc(C#N)c2)c(Oc2ncc(C(F)(F)F)cc2Cl)c1
65.5 to 67.5 °C	CSCc1cc(C(F)(F)F)ccc1N
271 °C	Cc1cc(-c2cnn3c(C(F)(F)F)cc(-c4ccc(F)c(Cl)c4)nc23)cc(C)n1
191 to 192 °C	CSc1ccccc1C1CCN(CCCCNC(=O)c2ccc(-c3ccc(C(F)(F)F)cc3)cc2)CC1
137 to 140 °C	O=C(Oc1cc(F)ccc1F)c1cc2cc(CCl)ccc2oc1=O
188 to 189 °C	O=C(Nc1cccnc1)c1cccc(-c2ccc3c(c2)C(Oc2ccc(Cl)cc2Cl)CC3)c1 (centres undefined)
250 to 251 °C	COc1ccc(N2C(=O)c3ccc(Cl)cc3C2CC(=O)O)cc1 (centres undefined)
76.8 to 77.6 °C	NC1(Cc2ccc(C(=O)Nc3ccncc3)cc2)C=CC=CC1 (centres undefined)
125 to 130 °C	Cn1cccc1-c1nsc2ccc(-n3c(=O)cc(C(F)(F)F)[nH]c3=O)cc12
120 to 124 °C	Cn1c(CC#N)ccc1C(=O)c1ccc(Cl)cc1
160 to 165 °C	COc1ccccc1[C@H](c1cccc2ccccc12)[C@@](C)(C#N)C(=O)N1CCC(C2CCCC(C(F)(F)F)C2)CC1 (some centres undefined)
177 to 179 °C	O=C(NC(=O)c1c(F)cccc1F)Nc1ccc(SC(F)(F)C(F)F)cc1F
130 to 133 °C	Cc1ccc(N2CCN(c3ccc(C(C)(C)O)nc3-c3ccc(C(C)C)cc3)CC2)cc1
222 °C	CC1(C)CCC(C)(C)C2=C1C=C(CC#Cc1ccc(C(=O)O)cc1)CC2(O)OCc1ccc(C(F)(F)F)cc1 (centres undefined)
86 to 87 °C	O=S(=O)(Nc1cccc(CCOCc2csc(-c3ccccc3Cl)n2)c1)C(F)(F)F
84 °C	COCC(=O)N(C)c1ccc(NC(=O)[C@H]2C[C@@H](O)CN2C(=O)Nc2ccc(Cl)cc2)cc1
99 to 101 °C	CCOC(=O)[C@H](Cc1ccc([N+](=O)[O-])cc1)NC(=O)c1ccccc1
121 to 124 °C	Cn1ncnc1COCc1cccc(-n2cnc3cc(C(F)(F)F)ccc32)c1
78.5 to 80.5 °C	FC(F)(F)c1cc(C(F)(F)F)n2nc(SCc3ccccc3)nc2n1
148 to 151 °C	Nc1ccc(-n2cc(C(=O)O)c(=O)cc2-c2ccc3ccccc3c2)cc1
182 °C	CC(SC1COC(c2ccc(C(=O)Nc3ccc(C#N)c(C#N)c3)cc2)OC1)C(O)(Cn1cncn1)c1ccc(F)cc1F (centres undefined)
115 to 117 °C	COc1ccc2c(c1)c(CC(=O)Oc1cccc(CO[N+](=O)[O-])c1)c(C)n2C(=O)c1ccc(Cl)cc1
166 °C	CC(C)OC(=O)c1cc(-c2ccccc2)c(=O)n2c1-c1sccc1CC2
